Consider eight compounds from article PMC7599001, “The SNAP-tag technology revised: an effective chemo-enzymatic approach by using a universal azide-based substrate” (Journal of Enzyme Inhibition and Medicinal Chemistry, 2020).

Read-outs that look alike come from different tables or passages of the source.

The target in data set [1] is T1, SsOGT-H^5 (Saccharolobus solfataricus, UniProt Q97VW7, G105K/K110E/M106T/R102A/S100A/S132E).
T1 construct: His6-tag; made in house; host or cells: E. coli ABLE C
In words: AGTs' substrate assay by competitive inhibition method with SVG (gel-imaging). The data set is classed as biochemical. As to the method: Competitive inhibition assay was performed as described[23]^,[38]. Briefly, by using a fixed concentration of the fluorescent SVG (5 µM) and enzymes (5 µM), an increasing amount of guanine-derivatives (0–2 mM) was added to the mixtures. […] Subsequently, fluorescent bands were measured by gel-imaging on a VersaDoc 4000™ system (Bio-Rad), by applying a blue LED/530 bandpass filter. Obtained data were finally plotted by Equation (1), (1) RF=100%/1+([I]/IC50)^[S] where RF is the obtained Relative Fluorescence, [I] and [S] are the concentration of the inhibitor and the substrate, respectively, and finally the IC50 is the concentration needed to reduce by 50% the fluorescence intensity of the protein band.
(§1) We evaluated the activity of SNAP-tag® and H^5 enzymes on BGN3 and BGSN3 by the afore-mentioned IC50 method (Figure S5(A,B)) and other O^6-guanine-derivatives (Table 1).
(§2) Because most of them are non-fluorescent compounds, we performed an AGTs’ competitive inhibition assay by using the fluorescein-derivative SNAP-Vista® Green as substrate (SVG), as previously described[22–24]^,[45]. Briefly, the reaction of an AGT with SVG led to a fluoresceinated protein, which can be visualised as a fluorescent band in gel-imaging analysis after SDS-PAGE. The presence of increasing amounts of a non-fluorescent competitor in the reaction causes a decrease of the fluorescent signals, which can be measured and plotted for the IC50 values determination[23]^,[46].

For data set [2], the target named is T2, SNAP-tag® (Homo sapiens, UniProt P16455, A127T/C150S/C62A/G131K/G132T/K125A/M134L/N157G/R128A/R135S/S159E).
T2 sequence (P16455 1-182 C62A/K125A/A127T/R128A/G131K/G132T/M134L/R135S/C150S/N157G/S159E): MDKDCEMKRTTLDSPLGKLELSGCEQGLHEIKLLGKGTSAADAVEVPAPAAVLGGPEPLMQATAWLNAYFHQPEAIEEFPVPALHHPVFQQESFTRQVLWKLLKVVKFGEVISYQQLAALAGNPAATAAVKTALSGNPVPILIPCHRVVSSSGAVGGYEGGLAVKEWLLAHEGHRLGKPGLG
The data set is described as above. It counts as biochemical. The conditions noted are these: for IC50: SVG 5 µM, enzyme 5 µM, 30 min at 25 °C. As to the method:
Competitive inhibition assay was performed as described[23]^,[38]. Briefly, by using a fixed concentration of the fluorescent SVG (5 µM) and enzymes (5 µM), an increasing amount of guanine-derivatives (0–2 mM) was added to the mixtures. The reactions were incubated for 30 min at 25 °C and 50 °C for SNAP-tag® and H^5 respectively, and loaded on SDS-PAGE. Subsequently, fluorescent bands were measured by gel-imaging on a VersaDoc 4000™ system (Bio-Rad), by applying a blue LED/530 bandpass filter. Obtained data were finally plotted by Equation (1), (1) RF=100%/1+([I]/IC50)^[S] where RF is the obtained Relative Fluorescence, [I] and [S] are the concentration of the inhibitor and the substrate, respectively, and finally the IC50 is the concentration needed to reduce by 50% the fluorescence intensity of the protein band.
as §1, §2

For data set [3], the system named is HEK293T cells transfected with SNAP-tag® plasmid. Put plainly: Permeability of eukaryotic cells to BGSN3 (lysates then incubated with SVG, gel-imaging). The data set is classed as cell-based. The protocol:
HEK293T cells were maintained at 37 °C with 5% CO2 in Dulbecco’s Modified Essential Medium (Invitrogen, Carlsbad, CA) supplemented with 10% Foetal Bovine Serum (FBS) (Invitrogen) and 100 U/ml Penicillin/Streptomycin (Roche, Switzerland). HEK293T cells were transfected with SNAP-tag® plasmid by using Lipofectamine 2000 (Invitrogen) following manufacturer’s protocol. The treatment with BGSN3 were performed, at the concentration and time indicated for each experiment. Twenty-four hours after transfection, we treated cells with BGSN3 for 2 h at different concentrations ranging (from 1 to 25 µM), directly dissolving the compound in complete culture medium. Then cells were harvested, washed with PBS 1× buffer and lysed with 50 mM Tris-HCl pH 7.4, 150 mM NaCl, 0.5 mM EDTA, 0.1% Triton X-100 supplemented with complete protease (Roche, Switzerland) and phosphatase (SERVA Electrophoresis, Germany) inhibitors. Afterwards, transfected cells were treated with a fixed concentration of BGSN3 (10 µM) at different time points (from 30 to 120 min). Again, HEK293T cells were washed and lysed as described before. […] Subsequently, proteins were loaded on SDS-PAGE and analysed by gel-imaging on a VersaDoc 4000™ system (Bio-Rad), by applying a blue LED/530 bandpass filter (Figure 6).

Data set [4] concerns the target T2, SNAP-tag®. Further details: method as in PMID 18291317, PMID 26499124. The conditions noted are these: 25 °C; obtained by using a BG-fluorescein substrate (BG-FL) very similar to SVG; cited from earlier work.
Data set [5] has as its target T1, SsOGT-H^5. The conditions noted are these: cited from earlier work.
The mark [6] stands for this setting: SVG 5 µM, enzyme 5 µM, 30 min at 50 °C, read-out: IC50.

T1 sequence (Q97VW7 whole entry S100A/R102A/G105K/M106T/K110E/S132E): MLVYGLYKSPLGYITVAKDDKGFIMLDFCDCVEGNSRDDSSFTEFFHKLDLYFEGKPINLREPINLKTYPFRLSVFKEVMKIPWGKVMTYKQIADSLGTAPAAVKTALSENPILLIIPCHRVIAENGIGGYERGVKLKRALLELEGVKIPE

Take `Nc1nc(OCc2ccccc2)c2nc[nH]c2n1` [BG, O^6-benzyl-guanine]: the concentration for half-maximal inhibition (IC50) at SsOGT-H^5 [1] (setting [6]) came to 10.1 ± 1 µM.

With `[N-]=[N+]=NCc1ccc(COc2nc(N)nc3nc[nH]c23)cc1` [BGN3, O^6-BG-N3], the half-maximal inhibitory concentration (IC50) at SNAP-tag® [2] worked out at 15.6 ± 0.3 µM; at SsOGT-H^5 [1] (setting [6]), 23.5 ± 1 µM.

As to `[N-]=[N+]=NCCCC(=O)NCc1ccc(COc2nc(N)nc3[nH]cnc23)cc1` [BGSN3, N-(4-(((2-amino-9H-purin-6-yl)oxy)methyl)benzyl)-4-azidobutanamide], the figures for the IC50 on SNAP-tag® [2] and on SsOGT-H^5 [1] were 17.8 ± 1.1 µM and 10 ± 0.7 µM, respectively. Besides, the “concentration for internalisation (absence of SVG signal)” value in data set [3] (2 h treatment in culture medium) is on record as below 5 µM. The time of internalisation result in data set [3] (BGSN3 10 µM in culture medium) is listed as “ca. 30 min”.

Take BG-PEG-NH2 [BGPA]: the figures for the IC50 on SNAP-tag® [2] and on SsOGT-H^5 [1] (setting [6]) were 86 ± 6.7 µM and 14.3 ± 1.9 µM, respectively.

Regarding SNAP Cell^® 430 [SC430], the “competition with SVG” value on SNAP-tag® [2] (competitive inhibition assay) and at SsOGT-H^5 [1] (competitive inhibition assay) was “completely lost the competition with SVG” each time.

For SNAP Cell^® Block [SCB], the figures for the IC50 on SNAP-tag® [2] and at SsOGT-H^5 [1] (setting [6]) were 2.1 ± 0.5 µM and 4.4 ± 0.8 µM, respectively.

As to SNAP-Vista^® Green [SVG], the “k (second order rate constant of the enzymatic reaction)” value on SNAP-tag® [4] is 2.8 × 10^4 b s^−1 M^−1; at SsOGT-H^5 [5] it was 16000 M⁻¹ s⁻¹.

For the compound methyl-guanine-PEG-NH2 [MGPA], the half-inhibitory concentration (IC50) at SsOGT-H^5 [1] (competitive assay for H^5 performed at 65 °C, read-out: IC50) is 269 ± 19.1 µM.

As a reminder, the IC50 is the concentration at which inhibition is half-maximal.
